Values quoted from earlier work as cited in PMC10817097, “Caffeic Acid Phosphanium Derivatives: Potential Selective Antitumor, Antimicrobial and Antiprotozoal Agents” (International Journal of Molecular Sciences, 2024).

What was measured:
Set-up in all cases: method as in PMID 36771693
[1] = test system: HeLa (human cervical adenocarcinoma); settings: standard; cited from earlier work
[2] = test system: HCT116 (human colorectal adenocarcinoma); settings: HCT116, standard; cited from earlier work
[3] = test system: MDA-MB-231 (human mammary gland adenocarcinoma); settings: MDA-MB-231, standard; cited from earlier work
[4] = test system: MCF-7 (human breast adenocarcinoma); settings: MCF-7, standard; cited from earlier work
[5] = test system: A2058 (human metastatic melanoma); settings: A2058, standard; cited from earlier work
[6] = test system: PANC-1 (human pancreatic adenocarcinoma); settings: PANC-1, standard; cited from earlier work
[7] = test system: Jurkat (human leukemic T cell lymphoma); settings: standard; cited from earlier work
[8] = test system: NIH 3T3 (murine fibroblasts); settings: NIH 3T3 control cells, standard; cited from earlier work
[9] = test system: MCF-10A cell line (human mammary gland epithelial cells); settings: MCF-10A control cells, standard; cited from earlier work

## N.N.[Cl][Pt][Cl] [CisPt, cisplatin]
[1]
  IC50: 35.4 µM
[2]
  IC50: 7.4 µM
[3]
  IC50: 7.1 µM
[4]
  IC50: 29.7 µM
[5]
  IC50: 21.5 µM
[6]
  IC50: 16.5 µM
[7]
  IC50: 6.3 µM
[8]
  IC50: 40.6 µM
[9]
  IC50: 25.9 µM
